Experimental data published in patent publication US20250360100A1, “ANTI-CANCER DERIVATIVES OF OVATODIOLIDE AND USE THEREOF” (ARJIL BIOTECH HOLDING COMPANY LIMITED, priority 2024, published 2025).
Values after ≈ are worked out from the molar mass of the structure shown.

Columns and labels:
[1] = system: 293 (human embryonic kidney cells 293); test: MTT cytotoxicity assay in 293 cells; format: cell-based; details: HEK293, 48 hours treatment, read-out: CC50 (50% cytotoxic concentration)
Method: (§1) In the invention, the cytotoxic effect was evaluated by the viability of cancer/tumor cells measured by the MTT assay, in several cancer cell lines, including the cell lines 293, A549, Colo205, SK-HEP1, PC-3, PANC-1, and AGS.
(§2) The compounds as tested were dissolved in DMSO (100 mg/mL), along with Doxorubicin (Dox), taken as a benchmark control, and the in vitro cytotoxicity in cancer cell lines were tested from 60 or 100 μg/mL with three-fold serial dilutions, and the 50% cytotoxic concentration (CC50) of test articles was determined by MTT assay.
(§3) Seven cancer cell lines were used in this example, including 293 (human embryonic kidney cells 293), A549 (human non-small cell lung cancer cells), Colo205 (human colon adenocarcinoma cells), SK-HEP1 (human hepatic cancer cells), PC-3 (human prostate carcinoma), PANC-1 (human pancreatic epithelioid carcinoma), and AGS (human gastric adenocarcinoma cells), cultured in the media and indicated as the table above. Briefly, cells seeded in 96-well plates were treated for 48 hours with the compounds as tested and the solvent (0.1% DMSO) as the vehicle control, respectively. Cell viability was determined by the MTT method, and the CC50 values were calculated using GraFit (Version 7, Erithacus Software Ltd., Horley, UK) and recorded.

[2] = system: A549 (human non-small cell lung cancer cells); test: MTT cytotoxicity assay in A549 cells; format: cell-based; details: 48 hours treatment, read-out: CC50 (50% cytotoxic concentration)
Method: as §1, §2, §3

[3] = system: Colo205 (human colon adenocarcinoma cells); test: MTT cytotoxicity assay in Colo205 cells; format: cell-based; details: COLO 205, 48 hours treatment, read-out: CC50 (50% cytotoxic concentration)
Method: as §1, §2, §3

[4] = system: SK-HEP1 (human hepatic cancer cells); test: MTT cytotoxicity assay in SK-HEP1 cells; format: cell-based; details: 48 hours treatment, read-out: CC50 (50% cytotoxic concentration)
Method: as §1, §2, §3

[5] = system: PC-3 (human prostate carcinoma); test: MTT cytotoxicity assay in PC-3 cells; format: cell-based; details: 48 hours treatment, read-out: CC50 (50% cytotoxic concentration)
Method: as §1, §2, §3

[6] = system: PANC-1 (human pancreatic epithelioid carcinoma); test: MTT cytotoxicity assay in PANC-1 cells; format: cell-based; details: 48 hours treatment, read-out: CC50 (50% cytotoxic concentration)
Method: as §1, §2, §3

[7] = system: AGS (human gastric adenocarcinoma cells); test: MTT cytotoxicity assay in AGS cells; format: cell-based; details: 48 hours treatment, read-out: CC50 (50% cytotoxic concentration)
Method: as §1, §2, §3

[8] = system: seven cancer cell lines (293, A549, Colo205, SK-HEP1, PC-3, PANC-1, AGS); test: MTT cytotoxicity, overall statement for the seven cancer cell lines; format: cell-based, human; details: all seven cell lines, 48 hours
Method: as §1, §2, §3

Row | SMILES | CC50 [1] | CC50 [2] | CC50 [3] | CC50 [4] | CC50 [5] | CC50 [6] | CC50 [7] | cytotoxicity (result in words) [8]
1 | C=C1C(=O)O[C@H]2/C=C(\C)C[C@@H]3C=C(CC/C=C(\C)CC[C@H]12)C(=O)O3 [AR100-DS1, ovatodiolide] | 25.7 ± 2.5 mg/L (≈ 78.3 µM) | 29.6 ± 0.4 mg/L (≈ 90.1 µM) | 41.7 ± 4.5 mg/L (≈ 127 µM) | 49.9 ± 5.2 mg/L (≈ 152 µM) | 17.8 ± 0.2 mg/L (≈ 54.2 µM) | 40.2 ± 3.9 mg/L (≈ 122 µM) | 13 ± 5.1 mg/L (≈ 39.6 µM) | –
2 | COc1cccc2c1C(=O)c1c(O)c3c(c(O)c1C2=O)C[C@@](O)(C(=O)CO)C[C@@H]3O[C@H]1C[C@H](N)[C@H](O)[C@H](C)O1 [Dox, Doxorubicin] | > 10 mg/L | > 10 mg/L | 8.7 ± 0.6 mg/L (≈ 16 µM) | 9.8 ± 0.2 mg/L (≈ 18 µM) | 10.3 ± 1.5 mg/L (≈ 19 µM) | 10.7 ± 1.5 mg/L (≈ 19.7 µM) | 0.3 ± 0.1 mg/L (≈ 0.552 µM) | –
3 | C=C1C(=O)O[C@H]2/C=C(\C)C[C@@H]3C=C(CCC4OC4(C)CC[C@H]12)C(=O)O3 (stereo partly drawn) [Ova-Oxy] | 22.5 ± 0.5 mg/L (≈ 65.3 µM) | 23 ± 4.7 mg/L (≈ 66.8 µM) | 17 ± 0.2 mg/L (≈ 49.4 µM) | 45.2 ± 3.2 mg/L (≈ 131 µM) | 12.3 ± 5.4 mg/L (≈ 35.7 µM) | 32 ± 0.8 mg/L (≈ 92.9 µM) | 9.1 ± 0.9 mg/L (≈ 26.4 µM) | exhibit cytotoxic effects in all of the seven cancer cell lines
4 | C/C1=C\CCC2=C[C@@H](C/C(C)=C/[C@@H]3OC(=O)C(CSCCO)[C@H]3CC1)OC2=O (stereo partly drawn) [Ova-ST2] | > 100 mg/L | > 100 mg/L | > 100 mg/L | > 100 mg/L | > 100 mg/L | > 100 mg/L | > 100 mg/L | did not exhibit the cytotoxicity
